Laboratory results: patent publication US4168318A, “1-(2,4,6-Trihydroxyphenyl)-propanedione-(1,2)-compounds and therapeutic compositions” (priority 1974, dated 1979)
Like-named read-outs stand apart in the source and are kept apart here. Marks after values point to notes of the source that are not given here.

How the values were obtained:
mice = assay: Acute toxicity / acute tolerance after i.v. injection in mice (Experiment A); format: in vivo, mice (male and female SPF-mice, stock NMRI); settings: for death rate % / death rate/No.: 14 days observation; for death rate/day, 1st: 1st day; for DL50, converted to the free compound: given as N-methyl glucamine salt, expressed as Compound; for death rate/day, 3rd: 3rd day; for acute symptoms of non-tolerance: mice; for death rate/day, 2nd: 2nd day
Protocol: (§1) The acute toxicity of the compounds of the invention was tested on mice, and since the substances are substantially nontoxic after oral administration, the acute tolerance of the two Compounds B and C in their methyl glucamine salts form was determined after i.v. injection. This form of preparation was also chosen for the pharmacological measurement of the antiphalloidine effect.
(§2) Experimental animals were male and female SPF-mice, stock NMRI, of the firm of Voss, Tuttlingen, Germany, having a weight of about 25-30 g. each. All animals were housed under identical conditions and were given "Sniff" standard food and drinking water ad libitum. The mice were administered the dosages once in 20 ml 0.9% NaCl+4% PVP/kg i.v. at an injection rate of approximately 1 ml/min. The observation time was 14 days.
(§3) 1. Compound B as N-methyl glucamine salt.
(§4) 2. Compound C as N-methyl glucamine salt.
(§5) 3. Polyvinyl pyrrolidone (PVP) of Fluka, mol. wt.~10,000 stock solution: 4% PVP dissolved in 0.9% NaCl.

[1] = test system: liver damage induced by phalloidine; assay: Anti-phalloidine effect: death rate and survival time after phalloidine poisoning (Experiment B); format: in vivo, mice (male and female, homebred strain, stock Garvens); settings: 140.5 mg/kg i.v. as N-methyl glucamine salt 1 hour before phalloidine 3 mg/kg i.p.
Protocol: The liver-protective effect of the compounds B and C according to the invention in the form of their water-soluble N-methyl glucamine salts was tested on mice by antagonizing liver damage induced by phalloidine with treatment using the compounds of the invention.
140.5 mg of Compound B/25 ml 0.9% NaCl+4% PVP/kg i.v.
40.5 mg MG/25 ml 0.9% NaCl+4% PVP/[…] i.v.
Phalloidine, predissolved in 3 ml methanol to 20 ml 0.9%
Experimental animals were male and female mice of a homebred strain, stock Garvens, having a weight of about 20-25 g. All animals were housed under identical conditions and were given "Ssniff" standard food and drinking water ad libitum.
Compound B as its N-methyl glucamine salt was injected in a dosage of 140.5 mg/kg i.v. 1 hour prior to administration of phalloidine at 3 mg/kg i.p. (to induce damage to the liver). The control animals received 40.5 mg/kg N-methyl glucamine salt i.v. The death rate and survival time after the phalloidine poisoning were registered. The observation time was 7 days.

[2] = test system: phalloidine-induced damage to the liver; assay: Anti-phalloidine effect: serum enzymes GOT and GPT (Experiment C); format: in vivo, mice (female SPF-mice, stock NMRI); settings: 140.5 mg/kg i.v. as N-methyl glucamine salt 1 hour before phalloidine 1.5 mg/kg i.p.
Protocol: As an additional pharmacological measurement, the antiphalloidine effect of Compound C as its N-methyl glucamine salt i.v. was subsequently determined.
1.5 mg phalloidine, predissolved in 3 ml methanol ad 20 ml
Experimental animals were female SPF-mice, stock NMRI, of the firm of Voss, Tuttlingen, having a weight of about 25 g. All animals were housed under identical conditions and were given "Ssniff" standard food and drinking water ad libitum. Compound C as its N-methyl glucamine salt was injected in a dosage of 140.5 mg/kg i.v. 1 hour before the phalloidine poisoning (1.5 mg/kg i.p.). The control animals received 40.5 mg/kg N-methyl glucamine salt i.v. after a period of 24 hours subsequent to the damage to the liver, blood was taken from the mice from the retroorbital venae plexus for the determination of the serum enzymes GOT and GPT.

[3] = Acute toxicity / acute tolerance after i.v. injection in mice (Experiment A); format: in vivo, mice (male and female SPF-mice, stock NMRI); settings: mouse, in vivo, iv; for mortality at 336 h: N-methyl glucamine salt, 14 days observation, read-out: death rate %; for LD50 at 336 h: i.v., given as N-methyl glucamine salt, expressed as Compound, read-out: DL50, converted to the free compound
Protocol: as §1, §2, §3, §4, §5

[4] = female mice, 570 mg/kg i.v., N-methyl glucamine salt
[5] = female mice, 680 mg/kg i.v., N-methyl glucamine salt
[6] = female mice, 800 mg/kg i.v., N-methyl glucamine salt
[7] = female mice, 960 mg/kg i.v., N-methyl glucamine salt
[8] = male mice, 425 mg/kg i.v., N-methyl glucamine salt
[9] = male mice, 600 mg/kg i.v., N-methyl glucamine salt
[10] = male mice, 714.1 mg/kg i.v., N-methyl glucamine salt
[11] = male mice, 850 mg/kg i.v., N-methyl glucamine salt
[12] = male mice, 1200 mg/kg i.v., N-methyl glucamine salt
[13] = male mice, 1700 mg/kg i.v., N-methyl glucamine salt
[14] = female mice, 424.3 mg/kg i.v., N-methyl glucamine salt
[15] = female mice, 504.6 mg/kg i.v., N-methyl glucamine salt
[16] = female mice, 600 mg/kg i.v., N-methyl glucamine salt
[17] = male mice, 424.3 mg/kg i.v., N-methyl glucamine salt
[18] = male mice, 504.6 mg/kg i.v., N-methyl glucamine salt

COc1cc(C2Oc3cc(CC(=O)C(=O)c4c(O)cc(O)cc4O)ccc3OC2CO)ccc1O (stereo not drawn) [Compound B]
death rate % (mice; [4]): 0% | death rate/No. (mice; [4]): 0/10 | death rate/day, 1st (mice; [5]): 1 | death rate % (mice; [5]): 10% | death rate/No. (mice; [5]): 1/10 | survival time span (mice; female mice, 680 mg/kg i.v., N-methyl glucamine salt, ' = minutes, ^h = hours): ~23^h minutes-hours | death rate/day, 1st (mice; [6]): 3 | death rate % (mice; [6]): 30% | death rate/No. (mice; [6]): 3/10 | death rate/day, 1st (mice; [7]): 7 | death rate % (mice; [7]): 70% | death rate/No. (mice; [7]): 7/10 | DL50, converted to the free compound (mice; female mice, i.v., 20160 min): 604.98 mg/kg | death rate % (mice; [8]): 0% | death rate/No. (mice; [8]): 0/5 | death rate % (mice; [9]): 0% | death rate/No. (mice; [9]): 0/10 | death rate/day, 1st (mice; [10]): 1 | death rate/day, 3rd (mice; [10]): 2 | death rate % (mice; [10]): 30% | death rate/No. (mice; [10]): 3/10 | death rate/day, 1st (mice; [11]): 8 | death rate % (mice; [11]): 80% | death rate/No. (mice; [11]): 8/10 | death rate/day, 1st (mice; [12]): 5 | death rate % (mice; [12]): 100% | death rate/No. (mice; [12]): 5/5 | death rate/day, 1st (mice; [13]): 3 | death rate % (mice; [13]): 100% | death rate/No. (mice; [13]): 3/3 | DL50 (mice; male mice, i.v., dose as N-methyl glucamine salt, 20160 min): 820 ± 34 mg/kg | DL50, converted to the free compound (mice; male mice, i.v., 20160 min): 583.63 mg/kg | acute symptoms of non-tolerance (mice; i.v., N-methyl glucamine salt): accelerated respiration, laying on their side, and clonic tonic cramps before death actually occurred | phalloidine poisoning (DL80) measured by death rate and survival time [1]: prevented | death rate ([1]; male and female mice, 7 days, control 80%): 0%

COc1cc(C2Oc3c(O)cc(CC(=O)C(=O)c4c(O)cc(O)cc4O)cc3C2CO)ccc1O (stereo not drawn) [Compound C]
damage to the liver, measured by the increase of serum enzymes GOT and GPT [2]: entirely prevented | GPT in the serum ([2]; female mice, 24 hours after, control 667.4±324.6): 13.4±0.9 mU/ml | GOT in the serum ([2]; female mice, 24 hours after, control 1489.2±904.7): 38.7±2.9 mU/ml | death rate/No. (mice; female mice, 300 mg/kg i.v., N-methyl glucamine salt): 0/10 | death rate/day, 2nd (mice; [14]): 1 | death rate/day, 3rd (mice; [14]): 5 | death rate/day, 4th (mice; female mice, 424.3 mg/kg i.v., N-methyl glucamine salt, 4th day): 2 | death rate/No. (mice; [14]): 8/10 | death rate/day, 1st (mice; [15]): 5 | death rate/No. (mice; [15]): 5/5 | death rate/day, 1st (mice; [16]): 5 | death rate/No. (mice; [16]): 5/5 | death rate/No. (mice; male mice, 300 mg/kg i.v., N-methyl glucamine salt): 0/10 | death rate/day, 2nd (mice; [17]): 3 | death rate/day, 3rd (mice; [17]): 1 | death rate/No. (mice; [17]): 4/10 | death rate/day, 1st (mice; [18]): 5 | death rate/No. (mice; [18]): 5/5 | death rate/day, 1st (mice; [9]): 5 | death rate/No. (mice; [9]): 5/5 | acute symptoms of non-tolerance (mice; i.v., N-methyl glucamine salt): accelerated respiration, laying on their side, and clonic tonic cramps before death actually occurred | mortality at 336 h ([3]; 300 mg/kg, female mice, 300 mg/kg i.v.): 0% | mortality at 336 h ([3]; 300 mg/kg, male mice, 300 mg/kg i.v.): 0% | mortality at 336 h ([3]; 424.3 mg/kg, female mice, 424.3 mg/kg i.v.): 80% | mortality at 336 h ([3]; 424.3 mg/kg, male mice, 424.3 mg/kg i.v.): 40% | mortality at 336 h ([3]; 504.6 mg/kg, female mice, 504.6 mg/kg i.v.): 100% | mortality at 336 h ([3]; 504.6 mg/kg, male mice, 504.6 mg/kg i.v.): 100% | mortality at 336 h ([3]; 600 mg/kg, female mice, 600 mg/kg i.v.): 100% | mortality at 336 h ([3]; 600 mg/kg, male mice, 600 mg/kg i.v.): 100% | LD50 at 336 h ([3]; female mice): 274 mg/kg | LD50 at 336 h ([3]; male mice): 295 mg/kg
